# Measurements reported in US20250281457A1, “TREATMENT OR PREVENTION OF DENGUE VIRAL INFECTION” (Janssen Pharmaceuticals, Inc., priority 2022, published 2025).
# Like-named read-outs stand apart in the source and are kept apart here.
# Assay: Effect of food on plasma pharmacokinetics after single oral dose of SF2a/b (Example 2)
# Format: in vivo, human
# Conditions: both sexes, human, plasma, oral, 800 mg; for Tmax: read-out: tmax, Median
# Procedure: The effect of food on the pharmacokinetics (PK) of Compound (a) was assessed in healthy participants after a single oral dose of SF2a/b, described in Example 1, administered at different dose levels in a randomized single dose, 2-period crossover study. The effect of food on the PK of Compound (a) was determined at 3 different dose levels (50 mg, 200 mg, and 800 mg) for a standardized breakfast; at one dose level (800 mg) for a high-fat, high-calorie breakfast; at two dose levels (200 mg and 800 mg) for a low-fat, low-calorie breakfast, as well as for a low-fat, high-calorie breakfast. 124 healthy adult participants (male and female, 18 to 55 years of age) were enrolled in this study. The volunteers were divided in six panels, which were organized as follows: • Panel […]: • Treatment D: A single 800-mg dose (4×200-mg tablets) of Compound (a) SF2b in fasted conditions. • Treatment E: A single 800-mg dose (4×200-mg tablets) of Compound (a) SF2b in fed conditions (standardized breakfast). • Treatments D and E (treatment sequence group 1 [n=8]: DE; treatment sequence group 2 [n=8]: ED). Panel 4, n=14: • Treatment F: A single 200-mg dose (1×200-mg tablet) of Compound (a) SF2b in fasted conditions. • Treatment G: A single 200-mg dose (1×200-mg tablet) of Compound (a) SF2b, in fed conditions (standardized breakfast). • Treatments F and G (treatment sequence group 1 [n=7]: FG; treatment sequence group 2 [n=7]: GF). Panel […]: • Treatment H: A single 50-mg dose (1×50-mg tablet) of Compound (a) SF2a in fasted conditions. • Treatment I: A single 50-mg dose (1×50-mg tablet) of Compound (a) SF2a in fed conditions (standardized breakfast). • Treatments H and I (treatment sequence group 1 [n=7]: HI; treatment sequence group 2 [n=7]: IH). Panel 6 (n=16): • Treatment J: single 800-mg dose (4×200-mg tablets) of Compound (a) administered as SF2b in fasted conditions. • Treatment K: single 800-mg dose (4×200-mg tablets) of Compound (a) administered as SF2b in fed conditions (high-fat, high-calorie breakfast). • Treatments J and K (treatment sequence group 1 [n=8]: JK; treatment sequence group 2 [n=8]: KJ). Panel 7 (n=32): • Treatment L: single 800-mg dose (4×200-mg tablets) of Compound (a) administered as SF2b in fed conditions (low-fat, low-calorie breakfast). • Treatment M: single 800-mg dose (4×200-mg tablets) of Compound (a) administered as SF2b in fed conditions (low-fat, high-calorie breakfast). • Treatment L (n=16) or Treatment M (n=16). Panel 8 (n=32): • Treatment N: single 200-mg dose (1×200-mg tablet) of Compound (a) administered as SF2b in fed conditions (low-fat, low-calorie breakfast). • Treatment O: single 200-mg dose (1×200-mg tablet) of Compound (a) administered as SF2b in fed conditions (low-fat, high-calorie breakfast). • Treatment N (n=16) or Treatment O (n=16). Tablets were administered orally, together with approximately 240 mL of non-carbonated water, in fasted or fed conditions. […] On day 1 of all treatments in each panel, the participants had fasted overnight for at least 10 hours before study drug intake. Intake of water was not allowed from 2 hours before and until 2 hours after study drug intake, except for the water used for study drug intake and breakfast. In case of intake in fed conditions, study drug was administered within 10 minutes after completing a standardized breakfast (Treatments E, G, and I), or a high-fat, high-calorie breakfast (Treatment K), a low-fat, low-calorie breakfast (Treatments L and N), or a low-fat, high-calorie breakfast (Treatments M and O). For treatments E, G, and I a standardized breakfast was served, consisting of (or its equivalent) 4 slices of bread, 2 slices of ham or cheese, butter, jelly, and 1 or 2 cups (up to 355 mL) of decaffeinated coffee or tea with milk and/or sugar, if desired (containing approximately: fat: 21 g, carbohydrates: 67 g, proteins: 19 g; total calories: 533 kcal). For treatment K in a high-fat, high-calorie breakfast was served. […]
smiles,measurement,setting,value
COc1cc(NC(C(=O)c2c[nH]c3ccc(OC(F)(F)F)cc23)c2ccc(Cl)cc2OC)cc(S(C)(=O)=O)c1 (stereo not drawn) [Compound (a)],Cmax,"800 mg SF2b, fed, high-fat, high-calorie breakfast, read-out: Cmax, Geometric LS Means Treatment K",4050 ng/mL
same,AUC(0-t),"800 mg SF2b, fed, low-fat, high-calorie breakfast, read-out: AUClast, Geometric LS Means Treatment M",227 µg·h/mL
same,AUC(0-inf),"800 mg SF2b, fed, low-fat, high-calorie breakfast, read-out: AUC∞, Geometric LS Means Treatment M",237 µg·h/mL
same,Cmax,"800 mg SF2b, fed, low-fat, high-calorie breakfast, read-out: Cmax, Geometric LS Means Treatment M",2060 ng/mL
same,AUC(0-t),"800 mg SF2b, fed, low-fat, low-calorie breakfast, read-out: AUClast, Geometric LS Means Treatment L",210 µg·h/mL
same,AUC(0-inf),"800 mg SF2b, fed, low-fat, low-calorie breakfast, read-out: AUC∞, Geometric LS Means Treatment L",221 µg·h/mL
same,Cmax,"800 mg SF2b, fed, low-fat, low-calorie breakfast, read-out: Cmax, Geometric LS Means Treatment L",2060 ng/mL
same,AUC(0-t),"800 mg SF2b, fed, standardized breakfast (Tables 5F, 5H), read-out: AUClast, Geometric LS Means Treatment E",347 µg·h/mL
same,AUC(0-inf),"800 mg SF2b, fed, standardized breakfast (Tables 5F, 5H), read-out: AUC∞, Geometric LS Means Treatment E",341 µg·h/mL
same,Cmax,"800 mg SF2b, fed, standardized breakfast (Tables 5F, 5H), read-out: Cmax, Geometric LS Means Treatment E",3400 ng/mL
same,AUC(0-t),"800 mg SF2b, standardized breakfast, linear mixed effects model (Table 5A), read-out: AUClast, Geometric Mean Treatment E",337 µg·h/mL
same,AUC(0-inf),"800 mg SF2b, standardized breakfast, linear mixed effects model (Table 5A), read-out: AUC∞, Geometric Mean Treatment E",352 µg·h/mL
same,Cmax,"800 mg SF2b, standardized breakfast, linear mixed effects model (Table 5A), read-out: Cmax, Geometric Mean Treatment E",3380 ng/mL
same,AUC(0-t),"Treatment D: single 800 mg (SF2b), fasted, read-out: AUClast, Geo. Mean",133 µg·h/mL
same,AUC(0-t),"Treatment D: single 800 mg (SF2b), fasted, read-out: AUClast, Mean",149 µg·h/mL
same,AUC(0-t),"Treatment D: single 800 mg (SF2b), fasted, read-out: AUClast, Median",138 µg·h/mL
same,AUC(0-inf),"Treatment D: single 800 mg (SF2b), fasted, read-out: AUC∞, Geo. Mean",142 µg·h/mL
same,AUC(0-inf),"Treatment D: single 800 mg (SF2b), fasted, read-out: AUC∞, Mean",160 µg·h/mL
same,AUC(0-inf),"Treatment D: single 800 mg (SF2b), fasted, read-out: AUC∞, Median",144 µg·h/mL
same,Cmax,"Treatment D: single 800 mg (SF2b), fasted, read-out: Cmax, Geo. Mean",1150 ng/mL
same,Cmax,"Treatment D: single 800 mg (SF2b), fasted, read-out: Cmax, Mean",1300 ng/mL
same,Cmax,"Treatment D: single 800 mg (SF2b), fasted, read-out: Cmax, Median",1450 ng/mL
same,half-life,"Treatment D: single 800 mg (SF2b), fasted, read-out: t1/2, term, Geo. Mean (converted)",7.49 days
same,half-life,"Treatment D: single 800 mg (SF2b), fasted, read-out: t1/2, term, Mean (converted)",8.06 days
same,half-life,"Treatment D: single 800 mg (SF2b), fasted, read-out: t1/2, term, Median (converted)",7.46 days
same,Tmax,"Treatment D: single 800 mg (SF2b), fasted",8 h
same,AUC(0-t),"Treatment E: single 800 mg (SF2b), fed, standardized breakfast, read-out: AUClast, Geo. Mean",340 µg·h/mL
same,AUC(0-t),"Treatment E: single 800 mg (SF2b), fed, standardized breakfast, read-out: AUClast, Mean",357 µg·h/mL
same,AUC(0-t),"Treatment E: single 800 mg (SF2b), fed, standardized breakfast, read-out: AUClast, Median",337 µg·h/mL
same,AUC(0-inf),"Treatment E: single 800 mg (SF2b), fed, standardized breakfast, read-out: AUC∞, Geo. Mean",337 µg·h/mL
same,AUC(0-inf),"Treatment E: single 800 mg (SF2b), fed, standardized breakfast, read-out: AUC∞, Mean",348 µg·h/mL
same,AUC(0-inf),"Treatment E: single 800 mg (SF2b), fed, standardized breakfast, read-out: AUC∞, Median",345 µg·h/mL
same,Cmax,"Treatment E: single 800 mg (SF2b), fed, standardized breakfast, read-out: Cmax, Geo. Mean",3400 ng/mL
same,Cmax,"Treatment E: single 800 mg (SF2b), fed, standardized breakfast, read-out: Cmax, Mean",3500 ng/mL
same,Cmax,"Treatment E: single 800 mg (SF2b), fed, standardized breakfast, read-out: Cmax, Median",3510 ng/mL
same,half-life,"Treatment E: single 800 mg (SF2b), fed, standardized breakfast, read-out: t1/2, term, Geo. Mean (converted)",6.9 days
same,half-life,"Treatment E: single 800 mg (SF2b), fed, standardized breakfast, read-out: t1/2, term, Mean (converted)",7.31 days
same,half-life,"Treatment E: single 800 mg (SF2b), fed, standardized breakfast, read-out: t1/2, term, Median (converted)",6.26 days
same,Tmax,"Treatment E: single 800 mg (SF2b), fed, standardized breakfast",6 h
